Source: US20230279233A1, “ATROROSINS AS FOOD COLORS” (Chromologics ApS, priority 2020, published 2023)
Where “and” joins values, the source holds several entries; their conditions need not be identical. Identical values can stand only once. Entries after “also recorded” stand apart in the source; their conditions may differ. Like-named read-outs stand apart in the source and are kept apart here.

How the values were obtained:
[1] = Temperature stability at 60° C. and 80° C. in McIlvaine buffer pH 5, absorption maxima
Experimental: Buffer and atrorosin was mixed for 5 minutes before the solutions were subjected heating in an incubator at 60° C. and 80° C. to colorimetric analysis using spectrophotometer. The absorption maxima at 425 nm and 490 nm were determined in a microtiter plate with a 0.45 cm cell length with buffer as blank. In comparison to the data in Table 3, the absorption spectrum of betanin is determined as above. […] In comparison to Table 5, the absorption spectrum of betanin is determined as above.

DPPH antioxidant assay = settings: 0 μM to 45 μM, 30 minutes, absorbance 517 nm, compared to Trolox (FIG. 3)
Experimental: To assess antioxidant activity of Atrorosin-E, the common DPPH (2,2 Diphenyl-1-picrylhydrazyl) assay was used. A working solution of DPPH was made with a concentration of 220 μg/ml in ethanol. 1 g of the resulting powder from Example 2 was used to make a dilution row of atrorosin-E from 0 μM to 45 μM. […] of each sample was reacted to 1000 μL of DPPH for 30 minutes in the dark before absorbance was measured.
Antioxidant activity was determined by calculating the inhibition of emission of DPPH by measuring absorbance of DPPH at 517 nm before and after incubation with reactants. As Atrorosins have background emission at 517, the before sample was measured seconds after addition of atrorosins rather than before. Antioxidant activity of Atrorosin-E was compared to the standard Trolox (FIG. 3).

TA 98 = test: mini-Ames (AMES MPF) genotoxicity; assay type: cell-based; settings: for genotoxic effects (in words): mini-Ames study
Experimental: Resulting powder from example 2 was sent to Cyprotox to asses for genotoxicity in a mini-Ames experiment. 43.2 mg of atrorosin was sent to Cyprotox. Mini-Ames test were conducted under the guidelines of OECD.
In comparison to the atrorosin tested above, similar 46.4 mg of carminic acid was also sent to Cyprotox to assess for genotoxicity.

[2] = Pharmacokinetic profile in rats, IV and PO; assay type: in vivo; settings: for Cmax: read-out: C0/Cmax
Experimental: Resulting powder from example 2 was sent to Evotec to asses for the pharmacokinetic profile of atrorosin. 6 rats were used, 3 rats for IV injection of atrorosin and 3 rats for PO. The rats were injected or given through mouth gauge 2 mg/kg, and blood samples were taken at regular intervals.
In comparison to example 10, similar carminic acid was also sent to Evotec to assess the pharmacokinetic profile.

[3] = pH stability in McIlvaine buffer pH 2.2-7.2, absorption maxima by spectrophotometer; assay type: physicochemical
[4] = rat, IV 2 mg/kg, individual rats 1-3, 2 mg/kg
[5] = rat, PO 2 mg/kg, individual rats 4-6, 2 mg/kg

For CCCCCCCC(=O)C1=C2C=C3C=C(/C=C\C(=O)O)N([C@@H](CCC(=O)O)C(=O)O)C=C3C(=O)C2(C)OC1=O (stereo partly shown) [Atrorosin-E], the “Absorption at 425 nm” value ([1]; 60° C., pH 5, 1 H) was 2.01, the “Absorption at 490 nm” value ([1]; 60° C., pH 5, 1 H) was 3.53 and the “Absorption at 425 nm” value ([1]; 60° C., pH 5, 2 H) was 1.98. For the same compound, the “Absorption at 490 nm” value ([1]; 60° C., pH 5, 2 H) was 3.42, the “Absorption at 425 nm” value ([1]; 60° C., pH 5, 3 H) was 1.78 and the “Absorption at 490 nm” value ([1]; 60° C., pH 5, 3 H) was 3.11. For the same compound, the “Absorption at 425 nm” value ([1]; 60° C., pH 5, 24 H) was 0.78, the “Absorption at 490 nm” value ([1]; 60° C., pH 5, 24 H) was 1.31 and the “Absorption at 425 nm” value ([1]; 60° C., pH 5, T0: Start) was 2.03. The “Absorption at 490 nm” value ([1]; 60° C., pH 5, T0: Start) was 3.55, the “Absorption at 425 nm” value ([1]; 80° C., pH 5, 1 H) was 1.66 and the “Absorption at 490 nm” value ([1]; 80° C., pH 5, 1 H) was 2.86. For the same compound, the “Absorption at 425 nm” value ([1]; 80° C., pH 5, 2 H) was 1.23, the “Absorption at 490 nm” value ([1]; 80° C., pH 5, 2 H) was 2.13 and the “Absorption at 425 nm” value ([1]; 80° C., pH 5, 3 H) was 0.99. The “Absorption at 490 nm” value ([1]; 80° C., pH 5, 3 H) was 1.71, the “Absorption at 425 nm” value ([1]; 80° C., pH 5, 15 min) was 2.00 and the “Absorption at 490 nm” value ([1]; 80° C., pH 5, 15 min) was 3.38. The “Absorption at 425 nm” value ([1]; 80° C., pH 5, T0: Start) was 2.04, the “Absorption at 490 nm” value ([1]; 80° C., pH 5, T0: Start) was 3.48 and the “Antioxidant activity (inhibition of DPPH, in words)” value (DPPH antioxidant assay) was “far more potent antioxidant than the control antioxidant Trolox”. For the same compound, the “Fold increase (over baseline)” value (TA 98; TA 98 +S9, 62.5 μg/ml) was 0.55, the “mean # pos. Wells” value (TA 98; TA 98 +S9, 62.5 μg/ml) was 1.33 and the “Fold increase (over baseline)” value (TA 98; TA 98 +S9, 125 μg/ml) was 0.28. For the same compound, the “mean # pos. Wells” value (TA 98; TA 98 +S9, 125 μg/ml) was 0.67, the “Fold increase (over baseline)” value (TA 98; TA 98 +S9, 250 μg/ml) was 0.42 and the “mean # pos. Wells” value (TA 98; TA 98 +S9, 250 μg/ml) was 1.00. For the same compound, the “Fold increase (over baseline)” value (TA 98; TA 98 +S9, 500 μg/ml) was 0.28, the “mean # pos. Wells” value (TA 98; TA 98 +S9, 500 μg/ml) was 0.67 and the “Fold increase (over baseline)” value (TA 98; TA 98 +S9, 1000 μg/ml) was 0.69. For the same compound, the “mean # pos. Wells” value (TA 98; TA 98 +S9, 1000 μg/ml) was 1.67, the “Fold increase (over baseline)” value (TA 98; TA 98 +S9, 2000 μg/ml) was 0.00 and the “mean # pos. Wells” value (TA 98; TA 98 +S9, 2000 μg/ml) was 0.00. The “Fold increase (over baseline)” value (TA 98; TA 98 −S9, 62.5 μg/ml) was 0.00, the “mean # pos. Wells” value (TA 98; TA 98 −S9, 62.5 μg/ml) was 0.00 and the “Fold increase (over baseline)” value (TA 98; TA 98 −S9, 125 μg/ml) was 0.76. The “mean # pos. Wells” value (TA 98; TA 98 −S9, 125 μg/ml) was 1.00, the “Fold increase (over baseline)” value (TA 98; TA 98 −S9, 250 μg/ml) was 1.52 and the “mean # pos. Wells” value (TA 98; TA 98 −S9, 250 μg/ml) was 2.00. For the same compound, the “Fold increase (over baseline)” value (TA 98; TA 98 −S9, 500 μg/ml) was 0.76, the “mean # pos. Wells” value (TA 98; TA 98 −S9, 500 μg/ml) was 1.00 and the “Fold increase (over baseline)” value (TA 98; TA 98 −S9, 1000 μg/ml) was 0.51. For the same compound, the “mean # pos. Wells” value (TA 98; TA 98 −S9, 1000 μg/ml) was 0.67, the “Fold increase (over baseline)” value (TA 98; TA 98 −S9, 2000 μg/ml) was 0.51 and the “mean # pos. Wells” value (TA 98; TA 98 −S9, 2000 μg/ml) was 0.67. For the same compound, the “genotoxic effects (in words)” value (TA 98) was “do not exert any genotoxic effects”, the “genotoxic effects (in words)” value (TA 98; listed as atrorosin) was “not genotoxic; also recorded: neither genotoxic” and the C0/Cmax ([2]; rat, IV 2 mg/kg, Mean) was 10098 ng/mL. The “CL/CL_F (plasma clearance)” value ([2]; rat, IV 2 mg/kg, Mean) was 16 ± 2 mL/min/kg, the Clast ([2]; rat, IV 2 mg/kg, Mean) was 3.15 ng/mL and the MRT ([2]; rat, IV 2 mg/kg, Mean) was 0.5 h. The Vdss ([2]; rat, IV 2 mg/kg, Mean) was 0.5 L/kg, the t½ ([2]; rat, IV 2 mg/kg, Mean) was 1.3 ± 0.6 h and the Cmax ([2]; rat, IV 2 mg/kg, Mean) was 18.6 µM. The Vdss ([2]; rat, IV 2 mg/kg, individual rats 1-3) was 0.5 L/kg, the AUC0-t [2, 4] was 2330 ng · hr/mL and 1818 ng · hr/mL and 2055 ng · hr/mL and 4297 nM · hr and 3352 nM · hr and 3790 nM · hr and the AUCinf [2, 4] was 2336 ng · hr/mL and 1822 ng · hr/mL and 2063 ng · hr/mL and 4308 nM · hr and 3360 nM · hr and 3804 nM · hr. The C0/Cmax [2, 4] was 9019 ng/mL and 10685 ng/mL and 10589 ng/mL, the CL/CL_F [2, 4] was 14 mL/min/kg and 18 mL/min/kg and 16 mL/min/kg and the Clast [2, 4] was 3.26 ng/mL and 3.45 ng/mL and 2.73 ng/mL. The MRT [2, 4] was 0.5 h (2×) and 0.4 h, the Tlast [2, 4] was 8 h (2×) and 6 h and the t½ [2, 4] was 1.3 h and 0.8 h and 1.9 h. The Cmax [2, 4] was 16.6 µM and 19.7 µM and 19.5 µM, the C0/Cmax ([2]; rat, PO 2 mg/kg, Mean) was 4.46 ng/mL and the Clast ([2]; rat, PO 2 mg/kg, Mean) was 3.28 ng/mL. For the same compound, the “Bioavailability (%) Using AUC0-t” value ([2]; rat, PO 2 mg/kg, Mean, 2 mg/kg) was 0.3%, the “Bioavailability (%) Using AUC0-t” value ([2]; rat, PO 2 mg/kg, Mean, listed as atrorosin, 2 mg/kg) was 0.3% and the Cmax ([2]; rat, PO 2 mg/kg, Mean) was 0.0082 µM. For the same compound, the Tmax ([2]; rat, PO 2 mg/kg, Median) was 1 h, the Tlast ([2]; rat, PO 2 mg/kg, individual rats 4-6) was 2 h and the AUC0-t [2, 5] was 6.35 ng · hr/mL and 7.6 ng · hr/mL and 5.76 ng · hr/mL and 11.7 nM · hr and 13.9 nM · hr and 10.6 nM · hr. For the same compound, the “Bioavailability (%) Using AUC0-t” value [2, 5] was 0.3% (2×) and 0.4%, the C0/Cmax [2, 5] was 4.35 ng/mL and 5.35 ng/mL and 3.68 ng/mL and the Clast [2, 5] was 2.6 ng/mL and 2.88 ng/mL. The Tmax [2, 5] was 2 h and 1 h and 0.25 h, the Cmax [2, 5] was 0.00803 µM and 0.0099 µM and 0.00679 µM and the Clast ([2]; rat, in vivo, po, 2 mg/kg) was 4.35 ng/mL. For the same compound, the “safety when ingested / adverse effects on rats (in words)” value ([2]; rats, 2 mg/kg IV or PO, 2 mg/kg) was “safe when ingested; also recorded: nor does it have any adverse effects on rats”, the “pH stability (in words)” value ([3]; compared with carminic acid, Tables 1 and 2) was “superior pH stability at low pH” and the “Absorption at 425 nm” value ([3]; pH 2.2) was 0.63. The “Absorption at 490 nm” value ([3]; pH 2.2) was 3.30, the “Absorption at 425 nm” value ([3]; pH 3.5) was 0.73 and the “Absorption at 490 nm” value ([3]; pH 3.5) was 3.92. For the same compound, the “Absorption at 425 nm” value ([3]; pH 5) was 0.75, the “Absorption at 490 nm” value ([3]; pH 5) was 3.94 and the “Absorption at 425 nm” value ([3]; pH 7.2) was 0.73. For the same compound, the “Absorption at 490 nm” value ([3]; pH 7.2) was 3.91.
